In ChEMBL document CHEMBL5608199, “Quaternized antimicrobial peptide mimics based on harmane as potent anti-MRSA agents by multi-target mechanism covering cell wall, cell membrane and intracellular targets” (Eur J Med Chem, 2024):
In brackets after ≈: the same amount, converted by molar mass. Activity calls are given as the source filed them. The rule behind the calls is not given here.

Legend:
Staphylococcus aureus [1] = assay: Antibacterial activity against methicillin-resistant Staphylococcus aureus ATCC 43300 incubated for 18 hrs by two fold serial broth dilution method; format: functional
Staphylococcus aureus [2] = assay: Antibacterial activity against methicillin-resistant Staphylococcus aureus CGMCC 1.12409 incubated for 18 hrs by two fold serial broth dilution method; format: functional
Staphylococcus aureus [3] = assay: Antibacterial activity against methicillin-resistant Staphylococcus aureus ATCC 33591 incubated for 18 hrs by two fold serial broth dilution method; format: functional
Staphylococcus aureus [4] = assay: Antibacterial activity against Staphylococcus aureus ATCC 29213 incubated for 18 hrs by two fold serial broth dilution method; format: functional
Staphylococcus aureus [5] = assay: Antibacterial activity against Staphylococcus aureus CMCC 26003 incubated for 18 hrs by two fold serial broth dilution method; format: functional
Escherichia coli = assay: Antibacterial activity against Escherichia coli ATCC 8739 incubated for 18 hrs by two fold serial broth dilution method; format: functional
Staphylococcus aureus [6] = assay: Drug resistance, ratio of MIC for methicillin-resistant Staphylococcus aureus ATCC 33591 after 9 passages to MIC for methicillin-resistant Staphylococcus aureus ATCC 33591 during first exposure; format: functional
Staphylococcus aureus [7] = assay: Drug resistance, ratio of MIC for methicillin-resistant Staphylococcus aureus ATCC 33591 after 10 passages to MIC for methicillin-resistant Staphylococcus aureus ATCC 33591 during first exposure; format: functional
Staphylococcus aureus [8] = assay: Drug resistance, ratio of MIC for methicillin-resistant Staphylococcus aureus ATCC 33591 after 12 passages to MIC for methicillin-resistant Staphylococcus aureus ATCC 33591 during first exposure; format: functional
Staphylococcus aureus [9] = assay: Antibacterial activity against methicillin-resistant Staphylococcus aureus ATCC 33591 infected in cyclophosphamide treated female KM mouse skin infection model assessed as reduction in number of bacterial clones in skin at 3.3 mg/kg administered for 4 days and measured on day 5; format: functional, organism-based; conditions: time 5.0 day
Staphylococcus aureus [10] = assay: Antibacterial activity against methicillin-resistant Staphylococcus aureus ATCC 33591 infected in cyclophosphamide treated female KM mouse skin infection model assessed as reduction in inflammatory cell infiltration at 3.3 mg/kg administered for 4 days and measured on day 5 by H and E staining based analysis; format: functional, organism-based; conditions: time 5.0 day

Compound | MIC (Staphylococcus aureus [1]) [µg/mL] | MIC (Staphylococcus aureus [2]) [µg/mL] | MIC (Staphylococcus aureus [3]) [µg/mL] | MIC (Staphylococcus aureus [4]) [µg/mL] | MIC (Staphylococcus aureus [5]) [µg/mL] | MIC (Escherichia coli) [µg/mL] | Ratio (Staphylococcus aureus [6]) | Ratio (Staphylococcus aureus [7]) | Ratio (Staphylococcus aureus [8]) | Activity (Staphylococcus aureus [9]) | Activity (Staphylococcus aureus [10])
Cc1nccc2c3ccccc3n(CCN(C)C)c12 | > 128 | > 128 | > 128 | > 128 | > 128 | 64 (≈ 253 µM) | – | – | – | – | –
CCCC[n+]1ccc2c3ccccc3n(CCN(C)C)c2c1C.[Br-] | > 128 | > 128 | 128 | > 128 | 128 | > 128 | – | – | – | – | –
Cc1c2c(cc[n+]1C)c1ccccc1n2CCCCCCCn1c2ccccc2c2cc[n+](C)c(C)c21.[I-].[I-] | 2 | 1 | 0.5 | 8 | 0.5 | 16 | – | – | – | – | –
CCCC[n+]1ccc2c3ccccc3n(CCN(CC)CC)c2c1C.[Br-] | 128 | 64 | 64 | > 128 | 64 | > 128 | – | – | – | – | –
CCn1cc(C(=O)O)c(=O)c2cc(F)c(N3CCNCC3)cc21 [NORFLOXACIN] | – | – | – | – | – | – | 16 | >16 | 2 | – | –
CCCCC[n+]1ccc2c3ccccc3n(CCN(CC)CC)c2c1C.[Br-] | 32 | 64 | 32 | 64 | 16 | 128 | – | – | – | – | –
CCC[n+]1ccc2c3ccccc3n(CC[N+](C)(C)CCC)c2c1C.[Br-].[Br-] | > 128 | > 128 | > 128 | > 128 | > 128 | > 128 | – | – | – | – | –
CC[n+]1ccc2c3ccccc3n(CC[N+](CC)(CC)CC)c2c1C.[Br-].[Br-] | > 128 | > 128 | > 128 | > 128 | > 128 | > 128 | – | – | – | – | –
CC[N+](C)(CC)CCn1c2ccccc2c2cc[n+](C)c(C)c21.[I-].[I-] | > 128 | > 128 | > 128 | > 128 | > 128 | > 128 | – | – | – | – | –
Cc1nccc2c3ccccc3n(CCCCn3c4ccccc4c4ccnc(C)c43)c12 | > 128 | > 128 | > 128 | > 128 | > 128 | > 128 | – | – | – | – | –
Cc1nccc2c3ccccc3n(CCCCCCn3c4ccccc4c4ccnc(C)c43)c12 | > 128 | > 128 | > 128 | > 128 | > 128 | > 128 | – | – | – | – | –
CCCCC[n+]1ccc2c3ccccc3n(CC[N+](C)(C)CCCCC)c2c1C.[Br-].[Br-] | > 128 | > 128 | > 128 | > 128 | > 128 | > 128 | – | – | – | – | –
Cc1nccc2c3ccccc3n(CCCCCn3c4ccccc4c4ccnc(C)c43)c12 | > 128 | > 128 | > 128 | > 128 | > 128 | > 128 | – | – | – | – | –
CCC[n+]1ccc2c3ccccc3n(CCN(CC)CC)c2c1C.[Br-] | > 128 | > 128 | 128 | > 128 | 64 | > 128 | – | – | – | – | –
CC[n+]1ccc2c3ccccc3n(CC[N+](C)(C)CC)c2c1C.[Br-].[Br-] | > 128 | > 128 | > 128 | > 128 | > 128 | > 128 | – | – | – | – | –
Cc1nccc2c3ccccc3n(CCCCCCCn3c4ccccc4c4ccnc(C)c43)c12 | > 128 | > 128 | > 128 | > 128 | > 128 | > 128 | – | – | – | – | –
CCCC[n+]1ccc2c3ccccc3n(CC[N+](C)(C)CCCC)c2c1C.[Br-].[Br-] | > 128 | > 128 | 128 | > 128 | 128 | > 128 | – | – | – | – | –
Cc1nccc2c3ccccc3n(CCCCCCCCn3c4ccccc4c4ccnc(C)c43)c12 | > 128 | > 128 | > 128 | > 128 | > 128 | > 128 | – | – | – | – | –
Cc1c2[nH]c3ccccc3c2cc[n+]1C.[I-] | > 128 | > 128 | > 128 | > 128 | > 128 | > 128 | – | – | – | – | –
[2H]C([2H])([2H])[n+]1ccc2c([nH]c3ccccc32)c1C.[I-] | > 128 | > 128 | > 128 | > 128 | > 128 | > 128 | – | – | – | – | –
Cc1c2c(cc[n+]1C)c1ccccc1n2CC[N+](C)(C)C.[I-].[I-] | > 128 | > 128 | > 128 | > 128 | > 128 | > 128 | – | – | – | – | –
CN[C@H](CC(C)C)C(=O)N[C@H]1C(=O)N[C@@H](CC(N)=O)C(=O)N[C@H]2C(=O)N[C@H]3C(=O)N[C@H](C(=O)N[C@H](C(=O)O)c4cc(O)cc(O)c4-c4cc3ccc4O)[C@H](O)c3ccc(c(Cl)c3)Oc3cc2cc(c3O[C@@H]2O[C@H](CO)[C@@H](O)[C@H](O)[C@H]2O[C@H]2C[C@](C)(N)[C@H](O)[C@H](C)O2)Oc2ccc(cc2Cl)[C@H]1O [VANCOMYCIN] | – | – | – | – | 0.25 (≈ 0.173 µM) | > 128 | – | – | – | Active | Active
CCN(CC)CCn1c2ccccc2c2ccnc(C)c21 | 128 (≈ 455 µM) | > 128 | 128 (≈ 455 µM) | 128 (≈ 455 µM) | 128 (≈ 455 µM) | 128 (≈ 455 µM) | – | – | – | – | –
[2H]C([2H])([2H])[n+]1ccc2c3ccccc3n(CC[N+](CC)(CC)C([2H])([2H])[2H])c2c1C.[I-].[I-] | > 128 | > 128 | > 128 | > 128 | > 128 | > 128 | – | – | – | – | –
[2H]C([2H])([2H])[n+]1ccc2c3ccccc3n(CC[N+](C)(C)C([2H])([2H])[2H])c2c1C.[I-].[I-] | > 128 | > 128 | > 128 | > 128 | > 128 | > 128 | – | – | – | – | –
